# Measurements as given in the supplement of paper PMC10307832.
# Compound: CC1(C)CNc2cc(NC(=O)c3cccnc3NCc3ccncc3)ccc21 [Motesanib] + COc1cc2c(Oc3ccc(NC(=O)C4(C(=O)Nc5ccc(F)cc5)CC4)cc3F)ccnc2cc1OCCCN1CCOCC1 [Foretinib] (partner 0.25 µM)
# Assay: relative viability (nuclei count vs DMSO), 5 days (fraction); higher = more cells survive
# Conditions: first compound 0.01 µM
# Procedure, shortened: (§1)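 Lung cancer cell lines were pin-tool dosed in 1536-well plates on the day after seeding, with either a lone drug or a fixed anchor-drug dose plus five library-drug doses (not always all listed) in √10 steps. Nuclei were counted on 4× images after 5 days. Relative viability is the ratio of treated-well to vehicle-well nuclei counts, with each value a median of duplicate plates.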
row,Cell Line,relative viability
1,H3255,0.837
2,COR-L23,0.993
3,COR-L 105,1.2
4,IA-LM,1.12
5,LOU-NH91,0.97
6,ChaGo-K-1,0.933
7,NCI-H2170,1.01
8,HOP-62,1.17
9,A549,0.88
10,SW 900,0.824
11,NCI-H2009,1.23
12,NCI-H661,0.998
13,SK-LU-1,0.941
14,NCI-H1299,1.06
15,NCI-H2228,0.995
16,NCI-H2023,0.849
17,NCI-H1563,0.904

# Same assay, conditions: first compound 0.03162 µM
row,Cell Line,relative viability
1,NCI-H2342,1.09
2,NCI-H1623,0.889
3,NCI-H727,0.98
4,NCI-H1650,0.816
5,EBC-1,0.0945
6,NCI-H1703,0.318
7,NCI-H1993,0.829
8,SW 1573,0.905
9,NCI-H838,1.06
10,LCLC-103H,0.707
11,NCI-H520,0.79
12,NCI-H2126,1.12
13,EMC-BAC-2,1.06
14,NCI-H2085,1.22
15,Calu-6,0.921
16,HCC-366,0.932
17,NCI-H1666,0.956
18,NCI-H596,0.818
19,LK-2,1.08
20,NCI-H2087,0.937

row,Cell Line,relative viability
1,SK-MES-1,0.963
2,H3255,0.762
3,COR-L23,1.06
4,COR-L 105,1.03
5,IA-LM,1.1
6,LOU-NH91,0.929
7,ChaGo-K-1,0.894
8,NCI-H2170,1.03
9,NCI-H2405,1.01
10,HOP-62,1.1
11,A549,0.942
12,SW 900,0.9
13,NCI-H2009,1.21
14,NCI-H661,1.1
15,SK-LU-1,0.831
16,NCI-H1299,1.11
17,NCI-H2228,0.937
18,NCI-H2023,0.838
19,NCI-H1563,0.899

# Same assay, conditions: first compound 0.1 µM
row,Cell Line,relative viability
1,NCI-H2342,1.12
2,NCI-H1623,0.763
3,NCI-H727,0.854
4,NCI-H1650,1.16
5,EBC-1,0.109
6,NCI-H1703,0.325
7,NCI-H1993,0.812
8,SW 1573,0.93
9,NCI-H838,1.07
10,LCLC-103H,0.844
11,NCI-H520,0.922
12,NCI-H2126,1.17
13,EMC-BAC-2,1.1
14,NCI-H2085,0.973
15,Calu-6,0.851
16,HCC-366,0.952
17,NCI-H1666,0.947
18,NCI-H596,0.98
19,NCI-H2087,1.2

row,Cell Line,relative viability
1,SK-MES-1,0.982
2,H3255,0.889
3,COR-L23,0.992
4,COR-L 105,1.16
5,IA-LM,1.23
6,LOU-NH91,0.91
7,ChaGo-K-1,0.861
8,NCI-H2170,0.955
9,NCI-H2405,1.06
10,HOP-62,1.02
11,A549,1.02
12,SW 900,1.36
13,NCI-H2009,1.23
14,NCI-H661,0.991
15,SK-LU-1,0.846
16,NCI-H1299,1.11
17,NCI-H2228,0.902
18,NCI-H2023,0.837
19,NCI-H1563,0.915

# Same assay, conditions: first compound 0.3162 µM
row,Cell Line,relative viability
1,NCI-H2342,1.1
2,NCI-H1623,0.871
3,NCI-H727,1.09
4,NCI-H1650,1.27
5,EBC-1,0.111
6,NCI-H1703,0.395
7,NCI-H1993,0.777
8,SW 1573,0.936
9,NCI-H838,1.14
10,LCLC-103H,0.867
11,NCI-H520,0.851
12,NCI-H2126,1.31
13,EMC-BAC-2,1.05
14,NCI-H2085,1.07
15,Calu-6,0.884
16,HCC-366,0.883
17,NCI-H1666,1.03
18,NCI-H596,0.656
19,LK-2,1.27
20,NCI-H2087,1.23

row,Cell Line,relative viability
1,SK-MES-1,0.945
2,H3255,0.791
3,COR-L23,0.964
4,COR-L 105,0.821
5,IA-LM,1.07
6,LOU-NH91,0.948
7,ChaGo-K-1,1.1
8,NCI-H2170,0.952
9,NCI-H2405,1.07
10,HOP-62,1.1
11,A549,0.944
12,SW 900,0.887
13,NCI-H2009,1.22
14,NCI-H661,1.13
15,SK-LU-1,0.841
16,NCI-H1299,1.16
17,NCI-H2228,1.02
18,NCI-H2023,0.911
19,NCI-H1563,0.909

# Same assay, conditions: first compound 1 µM
row,Cell Line,relative viability
1,NCI-H2342,0.971
2,NCI-H1623,0.873
3,NCI-H727,0.883
4,NCI-H1650,1.23
5,EBC-1,0.132
6,NCI-H1703,0.355
7,NCI-H1993,0.881
8,SW 1573,1.08
9,NCI-H838,1.09
10,LCLC-103H,0.937
11,NCI-H520,0.948
12,NCI-H2126,1.11
13,EMC-BAC-2,1.03
14,NCI-H2085,1.03
15,Calu-6,0.826
16,HCC-366,1.02
17,NCI-H1666,1.01
18,NCI-H596,0.806
19,LK-2,1.31
20,NCI-H2087,1.11

row,Cell Line,relative viability
1,SK-MES-1,0.86
2,H3255,0.976
3,COR-L23,0.955
4,COR-L 105,1.42
5,IA-LM,1.19
6,LOU-NH91,1.02
7,ChaGo-K-1,1.01
8,NCI-H2170,0.982
9,NCI-H2405,1.08
10,HOP-62,1.21
11,A549,1.03
12,SW 900,0.874
13,NCI-H2009,1.21
14,NCI-H661,0.9
15,SK-LU-1,0.906
16,NCI-H1299,1.12
17,NCI-H2228,0.796
18,NCI-H2023,0.927
19,NCI-H1563,0.889

# Compound: C[C@@]1(C(=O)Nc2ccc(F)nc2)CCCN1c1nc(Nc2cc(C3CC3)n[nH]2)c2cccn2n1 + Cc1nc(NC(=O)N2CCC[C@H]2C(N)=O)sc1-c1ccnc(C(C)(C)C(F)(F)F)c1 [Alpelisib] (partner 2 µM)
# Assay: as above
# Conditions: first compound 0.04 µM
# Procedure, shortened: as §1
row,Cell Line,relative viability
1,NCI-H727,0.33
2,EBC-1,1.04
3,NCI-H1703,0.485
4,NCI-H1993,0.678
5,SW 1573,0.802
6,NCI-H838,1.05
7,LCLC-103H,1.01
8,NCI-H520,0.918
9,NCI-H2126,0.637
10,EMC-BAC-2,0.634
11,NCI-H2085,0.936
12,Calu-6,1.05
13,HCC-366,0.205
14,NCI-H1666,0.825
15,NCI-H596,0.573
16,LK-2,1.01
17,NCI-H2087,1.09
18,SK-MES-1,0.962

row,Cell Line,relative viability
1,H3255,0.713
2,COR-L23,0.721
3,COR-L 105,0.871
4,IA-LM,0.83
5,LOU-NH91,0.68
6,NCI-H2170,0.728
7,NCI-H2405,0.785
8,HOP-62,1.04
9,HCC-44,0.666
10,A549,0.638
11,NCI-H2009,1.17
12,NCI-H661,0.592
13,SK-LU-1,1.18
14,NCI-H1299,1.11
15,NCI-H2228,0.709
16,NCI-H1792,0.618
17,NCI-H2023,0.407
18,NCI-H1563,0.943

# Same assay, conditions: first compound 0.1265 µM
row,Cell Line,relative viability
1,NCI-H727,0.24
2,EBC-1,0.608
3,NCI-H1703,0.266
4,SW 1573,0.518
5,NCI-H838,0.819
6,LCLC-103H,0.818
7,NCI-H520,0.688
8,NCI-H2126,0.561
9,EMC-BAC-2,0.664
10,NCI-H2085,0.927
11,Calu-6,0.932
12,HCC-366,0.162
13,NCI-H1666,0.798
14,NCI-H596,0.264
15,LK-2,1.13
16,NCI-H2087,1.07
17,SK-MES-1,0.676
18,H3255,0.771

row,Cell Line,relative viability
1,COR-L23,0.711
2,COR-L 105,0.805
3,IA-LM,0.674
4,LOU-NH91,0.664
5,NCI-H2170,0.658
6,NCI-H2405,0.688
7,HOP-62,0.843
8,HCC-44,0.698
9,A549,0.392
10,NCI-H2009,1.24
11,NCI-H661,0.665
12,SK-LU-1,0.965
13,NCI-H1299,1.05
14,NCI-H2228,0.518
15,NCI-H1792,0.538
16,NCI-H2023,0.374
17,NCI-H1563,0.891

# Same assay, conditions: first compound 0.4 µM
row,Cell Line,relative viability
1,NCI-H727,0.221
2,EBC-1,0.642
3,NCI-H1703,0.28
4,NCI-H1993,0.649
5,SW 1573,0.523
6,NCI-H838,0.815
7,LCLC-103H,0.829
8,NCI-H520,0.926
9,NCI-H2126,0.531
10,EMC-BAC-2,0.613
11,NCI-H2085,0.883
12,Calu-6,0.888
13,HCC-366,0.141
14,NCI-H1666,0.742
15,NCI-H596,0.356
16,LK-2,0.818
17,NCI-H2087,0.928
18,H3255,0.514

row,Cell Line,relative viability
1,COR-L23,0.563
2,COR-L 105,0.689
3,IA-LM,0.69
4,LOU-NH91,0.614
5,NCI-H2170,0.606
6,NCI-H2405,0.552
7,HOP-62,0.897
8,HCC-44,0.552
9,A549,0.333
10,NCI-H2009,1.12
11,NCI-H661,0.793
12,SK-LU-1,0.825
13,NCI-H1299,1.07
14,NCI-H2228,0.533
15,NCI-H1792,0.58
16,NCI-H2023,0.376
17,NCI-H1563,0.913

# Same assay, conditions: first compound 1.265 µM
row,Cell Line,relative viability
1,NCI-H727,0.303
2,EBC-1,0.431
3,NCI-H1703,0.3
4,NCI-H1993,0.745
5,SW 1573,0.715
6,NCI-H838,0.982
7,LCLC-103H,1.08
8,NCI-H520,0.801
9,NCI-H2126,0.657
10,EMC-BAC-2,0.818
11,NCI-H2085,0.851
12,Calu-6,0.455
13,HCC-366,0.163
14,NCI-H1666,0.585
15,NCI-H596,0.471
16,LK-2,1.23
17,NCI-H2087,0.851
18,SK-MES-1,0.843

row,Cell Line,relative viability
1,H3255,0.699
2,COR-L23,0.412
3,COR-L 105,0.806
4,IA-LM,0.698
5,LOU-NH91,0.675
6,NCI-H2170,0.728
7,NCI-H2405,0.573
8,HOP-62,1.11
9,HCC-44,0.783
10,A549,0.35
11,NCI-H2009,1.22
12,NCI-H661,0.566
13,SK-LU-1,0.708
14,NCI-H1299,1.09
15,NCI-H2228,0.529
16,NCI-H1792,0.686
17,NCI-H2023,0.407
18,NCI-H1563,0.85
